Measured values from US20260166128A1, “HUMAN AMYLIN ANALOG, AND DERIVATIVE THEREOF AND USE THEREOF” (priority 2022, published 2026).
Numbered stars: 1 amine (or outer) side, 2 acyl side, 3 side chain; on linkers, the order of the positions; unused ones are H or OH. Bridge positions count the residues as written; N and C are the ends. Side chains are listed from the residue outwards. Peptide text beside a SMILES is read from it. * marks the point of attachment. C20 diacid = O=C(O)CCCCCCCCCCCCCCCCCCC(=O)*; γGlu = O=C(O)[C@H](CCC(=O)[*:2])N[*:1]; AEEA = NCCOCCOCC(=O)O

Tests used:
[1] = Freeze-thaw stability of derivatives (freeze-thaw yield by liquid chromatography); format: physicochemical; settings: for Dissolution property: appearance after dissolution at 0.2 mg/ml in 20 mM phosphate buffer solution (PB) (pH 7.0); for Freeze storage property: appearance after overnight storage at −20° C. and thawing to room temperature, 0.2 mg/ml in 20 mM PB (pH 7.0)
Procedure, shortened: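 Freeze-thaw yield is the ratio of peptide concentration after versus before one overnight −20° C freeze and room-temperature thaw, both quantified by RP-HPLC of supernatant after centrifugation. Samples were 0.2 mg/ml freeze-dried derivative in 20 mM PB, pH 7.0.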

[2] = biological target: T1, human amylin receptor (Homo sapiens, UniProt O60896+P30988); assay: Luciferase assay of amylin derivatives in amylin receptor/CRE-luc CHO cell line; format: cell-based; settings: CHO-K1/Ga15/AMY3 CRE-luc cells, 24 hours incubation, F12 medium containing 10% FBS; read-out: EC50
T1 construct: host or cells: CHO-K1/Ga15/AMY3 cells, further stably transfected with a CRE-luciferase plasmid
T1 sequence (P30988 25-474): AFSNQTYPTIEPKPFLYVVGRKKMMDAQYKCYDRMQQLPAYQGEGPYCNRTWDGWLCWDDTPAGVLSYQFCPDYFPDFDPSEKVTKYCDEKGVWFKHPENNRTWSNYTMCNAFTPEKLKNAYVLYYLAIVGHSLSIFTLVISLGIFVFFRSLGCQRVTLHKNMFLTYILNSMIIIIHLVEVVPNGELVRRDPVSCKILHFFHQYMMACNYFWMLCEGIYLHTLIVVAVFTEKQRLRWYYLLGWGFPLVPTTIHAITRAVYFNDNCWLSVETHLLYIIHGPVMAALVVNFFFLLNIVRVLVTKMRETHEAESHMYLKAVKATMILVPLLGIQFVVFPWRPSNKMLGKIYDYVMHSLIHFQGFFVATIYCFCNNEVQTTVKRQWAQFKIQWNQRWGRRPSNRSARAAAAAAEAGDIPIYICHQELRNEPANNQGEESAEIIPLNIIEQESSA
T1 sequence (O60896 24-148 partner): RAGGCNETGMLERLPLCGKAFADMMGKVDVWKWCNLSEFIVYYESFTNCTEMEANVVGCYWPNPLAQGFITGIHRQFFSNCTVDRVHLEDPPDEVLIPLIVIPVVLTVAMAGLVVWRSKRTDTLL
Method: The experiment was intended to detect the activity or efficacy of the amylin derivatives on a human amylin receptor in vitro by luciferase assay.
50 μL of growth medium (F12 medium containing 10% FBS) was added into each well of a white 96-well plate, and the stably transfected amylin/CRE-lue CHO cells were inoculated into the white 96-well plate at a density of about 20,000 cells/well for activity determination.

| Dissolution property [1] | Freeze storage property [1] | EC50 [2] [nM] | SMILES |
| --- | --- | --- | --- |
| Clear | Clear | 0.129 | CC[C@H](C)[C@H](NC(=O)[C@@H]1CCCN1C(=O)CNC(=O)[C@H](CC(C)C)NC(=O)[C@H](CC(N)=O)NC(=O)[C@H](CCCCNC(=O)CC[C@H](NC(=O)CCCCCCCCCCCCCCCCCCC(=O)O)C(=O)O)NC(=O)[C@H](CO)NC(=O)[C@H](CO)NC(=O)[C@H](Cc1c[nH]cn1)NC(=O)[C@H](CCCNC(=N)N)NC(=O)[C@H](CC(C)C)NC(=O)[C@H](Cc1ccccc1)NC(=O)[C@H](CCC(=O)O)NC(=O)[C@H](C)NC(=O)[C@H](CC(C)C)NC(=O)[C@H](CCCNC(=N)N)NC(=O)[C@H](CCC(N)=O)NC(=O)[C@@H](NC(=O)[C@H](C)NC(=O)[C@@H]1CSSC[C@H](NC(=O)[C@@H](N)CCCNC(=N)N)C(=O)N[C@@H](CC(N)=O)C(=O)N[C@@H]([C@@H](C)O)C(=O)N[C@@H](C)C(=O)N[C@@H]([C@@H](C)O)C(=O)N1)[C@@H](C)O)C(=O)N[C@@H](CC(C)C)C(=O)N1CCC[C@H]1C(=O)N1CCC[C@H]1C(=O)N[C@H](C(=O)N[C@@H](CC(N)=O)C(=O)N[C@H](C(=O)NCC(=O)N[C@@H](CO)C(=O)N[C@@H](CC(N)=O)C(=O)N[C@H](C(=O)N1CCC[C@H]1C(N)=O)[C@@H](C)O)C(C)C)[C@@H](C)O [PD006] (H-RCNTATCATQRLAEFLRHSSK([γGlu-C20 diacid])NLGPILPPTNVGSNTP-NH2; disulfide 2-7 (inferred); N-terminus assumed) |
| Clear | Clear | 0.205 | CC[C@H](C)[C@H](NC(=O)[C@@H]1CCCN1C(=O)CNC(=O)[C@H](CC(C)C)NC(=O)[C@H](CCCCNC(=O)CC[C@H](NC(=O)CCCCCCCCCCCCCCCCCCC(=O)O)C(=O)O)NC(=O)[C@H](CC(N)=O)NC(=O)[C@H](CO)NC(=O)[C@H](CO)NC(=O)[C@H](Cc1c[nH]cn1)NC(=O)[C@H](CCCNC(=N)N)NC(=O)[C@H](CC(C)C)NC(=O)[C@H](Cc1ccccc1)NC(=O)[C@H](CCC(=O)O)NC(=O)[C@H](C)NC(=O)[C@H](CC(C)C)NC(=O)[C@H](CCCNC(=N)N)NC(=O)[C@H](CCC(N)=O)NC(=O)[C@@H](NC(=O)[C@H](C)NC(=O)[C@@H]1CSSC[C@H](NC(=O)[C@@H](N)CCCNC(=N)N)C(=O)N[C@@H](CC(N)=O)C(=O)N[C@@H]([C@@H](C)O)C(=O)N[C@@H](C)C(=O)N[C@@H]([C@@H](C)O)C(=O)N1)[C@@H](C)O)C(=O)N[C@@H](CC(C)C)C(=O)N1CCC[C@H]1C(=O)N1CCC[C@H]1C(=O)N[C@H](C(=O)N[C@@H](CC(N)=O)C(=O)N[C@H](C(=O)NCC(=O)N[C@@H](CO)C(=O)N[C@@H](CC(N)=O)C(=O)N[C@H](C(=O)N1CCC[C@H]1C(N)=O)[C@@H](C)O)C(C)C)[C@@H](C)O [PD007] (H-RCNTATCATQRLAEFLRHSSNK([γGlu-C20 diacid])LGPILPPTNVGSNTP-NH2; disulfide 2-7 (inferred); N-terminus assumed) |
| Clear | Clear | 0.281 | CC[C@H](C)[C@H](NC(=O)[C@@H]1CCCN1C(=O)CNC(=O)[C@H](CCCCNC(=O)CC[C@H](NC(=O)CCCCCCCCCCCCCCCCCCC(=O)O)C(=O)O)NC(=O)[C@H](CC(N)=O)NC(=O)[C@H](CC(N)=O)NC(=O)[C@H](CO)NC(=O)[C@H](CO)NC(=O)[C@H](Cc1c[nH]cn1)NC(=O)[C@H](CCCNC(=N)N)NC(=O)[C@H](CC(C)C)NC(=O)[C@H](Cc1ccccc1)NC(=O)[C@H](CCC(=O)O)NC(=O)[C@H](C)NC(=O)[C@H](CC(C)C)NC(=O)[C@H](CCCNC(=N)N)NC(=O)[C@H](CCC(N)=O)NC(=O)[C@@H](NC(=O)[C@H](C)NC(=O)[C@@H]1CSSC[C@H](NC(=O)[C@@H](N)CCCNC(=N)N)C(=O)N[C@@H](CC(N)=O)C(=O)N[C@@H]([C@@H](C)O)C(=O)N[C@@H](C)C(=O)N[C@@H]([C@@H](C)O)C(=O)N1)[C@@H](C)O)C(=O)N[C@@H](CC(C)C)C(=O)N1CCC[C@H]1C(=O)N1CCC[C@H]1C(=O)N[C@H](C(=O)N[C@@H](CC(N)=O)C(=O)N[C@H](C(=O)NCC(=O)N[C@@H](CO)C(=O)N[C@@H](CC(N)=O)C(=O)N[C@H](C(=O)N1CCC[C@H]1C(N)=O)[C@@H](C)O)C(C)C)[C@@H](C)O [PD008] (H-RCNTATCATQRLAEFLRHSSNNK([γGlu-C20 diacid])GPILPPTNVGSNTP-NH2; disulfide 2-7 (inferred)) |

Further lines, the molecule ahead of its results:

| SMILES | Dissolution property [1] | Freeze storage property [1] | EC50 [2] [nM] |
| --- | --- | --- | --- |
| CC[C@H](C)[C@H](NC(=O)[C@@H]1CCCN1C(=O)[C@H](CCCCNC(=O)COCCOCCNC(=O)COCCOCCNC(=O)CC[C@H](NC(=O)CCCCCCCCCCCCCCCCCCC(=O)O)C(=O)O)NC(=O)[C@H](CC(C)C)NC(=O)[C@H](CC(N)=O)NC(=O)[C@H](CC(N)=O)NC(=O)[C@H](CO)NC(=O)[C@H](CO)NC(=O)[C@H](Cc1c[nH]cn1)NC(=O)[C@H](CCCNC(=N)N)NC(=O)[C@H](CC(C)C)NC(=O)[C@H](Cc1ccccc1)NC(=O)[C@H](CCC(=O)O)NC(=O)[C@H](C)NC(=O)[C@H](CC(C)C)NC(=O)[C@H](CCCNC(=N)N)NC(=O)[C@H](CCC(N)=O)NC(=O)[C@@H](NC(=O)[C@H](C)NC(=O)[C@@H]1CSSC[C@H](NC(=O)[C@@H](N)CCCNC(=N)N)C(=O)N[C@@H](CC(N)=O)C(=O)N[C@@H]([C@@H](C)O)C(=O)N[C@@H](C)C(=O)N[C@@H]([C@@H](C)O)C(=O)N1)[C@@H](C)O)C(=O)N[C@@H](CC(C)C)C(=O)N1CCC[C@H]1C(=O)N1CCC[C@H]1C(=O)N[C@H](C(=O)N[C@@H](CC(N)=O)C(=O)N[C@H](C(=O)NCC(=O)N[C@@H](CO)C(=O)N[C@@H](CC(N)=O)C(=O)N[C@H](C(=O)N1CCC[C@H]1C(N)=O)[C@@H](C)O)C(C)C)[C@@H](C)O [PD004] (H-RCNTATCATQRLAEFLRHSSNNLK([AEEA-AEEA-γGlu-C20 diacid])PILPPTNVGSNTP-NH2; disulfide 2-7 (inferred); N-terminus assumed) | Clear | Clear | 0.102 |
| CC[C@H](C)[C@H](NC(=O)[C@@H]1CCCN1C(=O)[C@H](CCCCNC(=O)CC[C@H](NC(=O)CCCCCCCCCCCCCCCCCCC(=O)O)C(=O)O)NC(=O)[C@H](CC(C)C)NC(=O)[C@H](CC(N)=O)NC(=O)[C@H](CC(N)=O)NC(=O)[C@H](CO)NC(=O)[C@H](CO)NC(=O)[C@H](Cc1c[nH]cn1)NC(=O)[C@H](CCCNC(=N)N)NC(=O)[C@H](CC(C)C)NC(=O)[C@H](Cc1ccccc1)NC(=O)[C@H](CCC(=O)O)NC(=O)[C@H](C)NC(=O)[C@H](CC(C)C)NC(=O)[C@H](CCCNC(=N)N)NC(=O)[C@H](CCC(N)=O)NC(=O)[C@@H](NC(=O)[C@H](C)NC(=O)[C@@H]1CSSC[C@H](NC(=O)[C@@H](N)CCCNC(=N)N)C(=O)N[C@@H](CC(N)=O)C(=O)N[C@@H]([C@@H](C)O)C(=O)N[C@@H](C)C(=O)N[C@@H]([C@@H](C)O)C(=O)N1)[C@@H](C)O)C(=O)N[C@@H](CC(C)C)C(=O)N1CCC[C@H]1C(=O)N1CCC[C@H]1C(=O)N[C@H](C(=O)N[C@@H](CC(N)=O)C(=O)N[C@H](C(=O)NCC(=O)N[C@@H](CO)C(=O)N[C@@H](CC(N)=O)C(=O)N[C@H](C(=O)N1CCC[C@H]1C(N)=O)[C@@H](C)O)C(C)C)[C@@H](C)O [PD009] (H-RCNTATCATQRLAEFLRHSSNNLK([γGlu-C20 diacid])PILPPTNVGSNTP-NH2; disulfide 2-7 (inferred)) | Clear | Clear | 0.067 |
